Results on 19 compounds are retold here after US12018023B2 (NERVIANO MEDICAL SCIENCES S.R.L., priority 2018, dated 2024).

What all share (format): biochemical
In assay [1] the target is T1, IDH1^R132H homodimer enzyme (Homo sapiens, UniProt O75874, R132H).
T1 construct: purchased not specified
In words: NADPH depletion assay, IDH1 R132H. A digest of the protocol:
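IDH1 R132H enzyme (8 nM as diluted) in Tris-HCl pH 7.6 with 10 mM MgCl2, 0.001% Triton X-100 and 4 mM β-mercaptoethanol is preincubated 15 min at RT with compound. Substrate mix (12 uM NADPH, 3.4 mM α-ketoglutarate) is added for 60 min; remaining NAD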

In assay [2] the target is T2, IDH1^R132C (Homo sapiens, UniProt O75874, R132C).
T2 construct: purchased not specified
In words: NADPH depletion assay, IDH1 R132C. The procedure, abridged: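 Fluorescence readout (Ex544/Em590) of NADPH left after diaphorase/resazurin addition. Alpha-ketoglutarate 0.14 mM final, enzyme 2 nM final; compound preincubation 15 min, then 60 min reaction, both at room temperature, pH 7.6 Tris buffer.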

In assay [3] the target is T3, IDH2^R172K (Homo sapiens, UniProt P48735, R172K).
T3 construct: purchased not specified
T3 sequence (P48735 40-452 R172K): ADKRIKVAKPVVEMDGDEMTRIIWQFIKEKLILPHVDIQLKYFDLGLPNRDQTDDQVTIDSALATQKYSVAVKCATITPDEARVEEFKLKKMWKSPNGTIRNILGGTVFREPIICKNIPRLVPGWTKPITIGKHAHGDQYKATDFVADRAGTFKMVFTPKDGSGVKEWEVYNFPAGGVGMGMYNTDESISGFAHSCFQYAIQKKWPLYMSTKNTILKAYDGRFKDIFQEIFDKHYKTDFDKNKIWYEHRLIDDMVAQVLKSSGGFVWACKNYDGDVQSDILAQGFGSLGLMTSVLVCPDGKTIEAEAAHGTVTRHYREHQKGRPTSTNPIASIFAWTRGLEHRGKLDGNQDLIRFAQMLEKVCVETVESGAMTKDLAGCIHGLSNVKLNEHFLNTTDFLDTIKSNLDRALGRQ
Kind of assay: NADPH depletion assay, IDH2 R172K. Here is the method: IDH mutated enzyme activity converting alpha-ketoglutarate to 2-hydroxyglutaric acid is measured using a NADPH depletion assay. In the assay the remaining cofactor is measured at the end of the reaction with the addition of a catalytic excess of diaphorase and resazurin, to generate a fluorescent signal in proportion to the amount of NADPH remaining. IDH1 WT enzyme as well as mutated isoforms IDH1^R132H, IDH1^R132C, and IDH^2R172K enzymes are commercially available proteins (see e.g. Sino Biological, Abcam, Active Motif or Creative BioMart).
IDH1^R132H homodimer enzyme are diluted to 8 nM, in 10 μL of Assay Buffer (150 mM NaCl, 50 mM Tris-HCl pH 7.6, 10 mM MgCl2, 0.001% Triton X-100, 4 mM β-mercaptoethanol); 0.2 uL of test compound, previously serially diluted 1 to 3, >10 experimental points from 1 mM in DMSO, is added and the mixture is incubated for 15 minutes at room temperature. The reaction is started with the addition of 10 μL of Substrate Mix (12 uM NADPH, 3.4 mM alpha-ketoglutarate in Assay Buffer) and the mixture is incubated for 60 minutes at room temperature. The reaction is terminated with the addition of 5 μl of Detection Buffer (100 μg/mL diaphorase, 30 μM resazurin, in IX Assay Buffer), and is incubated for 15 minute before reading on a ViewLux as platereader at Ex544/Em590.
Compounds are assayed for their activity against IDH2^R172K following the same assay as above with the following modifications: IDH2^R172K and alpha-ketoglutarate final concentrations in the Assay Buffer is 16 nM and 0.55 mM, respectively.

T2 sequence (O75874 whole entry R132C): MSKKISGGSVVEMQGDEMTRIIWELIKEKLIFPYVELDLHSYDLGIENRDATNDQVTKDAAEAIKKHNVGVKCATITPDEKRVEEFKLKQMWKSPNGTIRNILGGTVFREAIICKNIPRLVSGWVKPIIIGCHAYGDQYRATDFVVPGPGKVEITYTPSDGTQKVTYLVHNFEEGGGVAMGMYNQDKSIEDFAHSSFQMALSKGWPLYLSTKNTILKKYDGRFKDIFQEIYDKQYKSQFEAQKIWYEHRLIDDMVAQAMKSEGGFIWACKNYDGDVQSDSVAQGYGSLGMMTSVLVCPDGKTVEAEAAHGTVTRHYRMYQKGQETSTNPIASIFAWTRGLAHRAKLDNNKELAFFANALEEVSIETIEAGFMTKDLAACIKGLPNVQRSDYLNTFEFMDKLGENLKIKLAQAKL
T1 sequence (O75874 whole entry R132H): as the sequence (O75874 whole entry R132C) above, with C132H counted along it

Consider `CC(C)[C@H](C)n1c(=O)ccc2cnc(N[C@@H](C)c3ccc(-c4ccnc(F)c4)cc3)nc21` [cpd 166, 2-({(1S)-1-[4-(2-fluoropyridin-4-yl)phenyl]ethyl}amino)-8-[(2S)-3-methylbutan-2-yl]pyrido[2,3-d]pyrimidin-7(8H)-one], for which the IC50 in assay [1] is 179 nM; in assay [2], 93 nM; in assay [3], 7570 nM.
`CCn1c(=O)ccc2cnc(N[C@@H](C)C3CCCCC3)nc21` [cpd 12, 2-{[(1S)-1-cyclohexylethyl]amino}-8-ethylpyrido[2,3-d]pyrimidin-7(8H)-one]: the results for the IC50 in assay [1], in assay [2] and in assay [3] were 3480 nM, 1780 nM and 5020 nM, respectively.
The like results for `CC(C)[C@H](C)n1c(=O)ccc2cnc(N[C@@H](C)c3ccc(C4=CCN(C(=O)OC(C)(C)C)CC4)cc3)nc21` [cpd 167, tert-butyl 4-{4-[(1S)-1-({8-[(2S)-3-methylbutan-2-yl]-7-oxo-7,8-dihydropyrido[2,3-d]pyrimidin-2-yl}amino)ethyl]phenyl}-3,6-dihydropyridine-1(2H)-carboxylate] were, in that order, 30 nM, 23 nM and 2560 nM.
On to `C[C@H](Nc1cc2c(ccc(=O)n2CC(C)(C)C)cn1)c1ccc(CN2CCCC(F)(F)C2)cc1` [cpd 235, 7-{(S)-1-[4-(3,3-Difluoro-piperidin-1-ylmethyl)-phenyl]-ethylamino}-1-(2,2-dimethyl-propyl)-1H-[1,6]naphthyridin-2-one], for which the results for the IC50 in assay [1], in assay [2] and in assay [3] were 128 nM, 48 nM and 5110 nM, respectively.
`CC(C)[C@H](C)n1c(=O)ccc2cnc(N[C@@H](C)c3ccc(N4CCN(C(=O)OCc5ccccc5)CC4)c(F)c3)nc21` [cpd 178, Benzyl 4-{2-fluoro-4-[(1S)-1-({8-[(2S)-3-methylbutan-2-yl]-7-oxo-7,8-dihydropyrido[2,3-d]pyrimidin-2-yl}amino)ethyl]phenyl}piperazine-1-carboxylate]: the results for the IC50 in assay [1], in assay [2] and in assay [3] were 46 nM, 30 nM and 5020 nM, respectively.
For `C[C@H](Nc1ncc2ccc(=O)n(CC(C)(C)CO)c2n1)c1ccc(Br)cc1` [cpd 35, 2-{[(1S)-1-(4-bromophenyl)ethyl]amino}-8-(3-hydroxy-2,2-dimethylpropyl)pyrido[2,3-d]pyrimidin-7(8H)-one], the IC50 in assay [1] was found to be 211 nM; in assay [3] it was 5050 nM.
Turning to `C[C@H](Nc1ncc2ccc(=O)n(Cc3ccc(F)c(F)c3)c2n1)c1ccc(Cl)cc1` [cpd 23, 2-{[(1S)-1-(4-chlorophenyl)ethyl]amino}-8-(3,4-difluorobenzyl)pyrido[2,3-d]pyrimidin-7(8H)-one], the values for the IC50 in assay [1], in assay [2] and in assay [3] were 2090 nM, 891 nM and 3490 nM, respectively.
Regarding `CC(C)[C@H](C)n1c(=O)ccc2cnc(N[C@@H](C)c3cc4cc(Cl)ccc4[nH]c3=O)nc21` [cpd 172, 2-{[(1S)-1-(6-chloro-2-oxo-1,2-dihydroquinolin-3-yl)ethyl]amino}-8-[(2S)-3-methylbutan-2-yl]pyrido[2,3-d]pyrimidin-7(8H)-one], the concentration for half-maximal inhibition (IC50) worked out at 179 nM in assay [1], 56 nM in assay [2] and 3590 nM in assay [3].
In the case of `C=CC(=O)N1CCN(c2ccc([C@H](C)Nc3ncc4ccc(=O)n([C@@H](C)C(C)C)c4n3)cc2F)CC1` [cpd 179, 2-({(1S)-1-[4-(4-acryloylpiperazin-1-yl)-3-fluorophenyl]ethyl}amino)-8-[(2S)-3-methylbutan-2-yl]pyrido[2,3-d]pyrimidin-7(8H)-one], the IC50 in assay [1] worked out at 123 nM; in assay [2], 63 nM; in assay [3], 2350 nM.
In the case of `C[C@H](Nc1ncc2ccc(=O)n(CC(C)(C)C)c2n1)c1ccc(-c2ccsc2)cc1` [cpd 133, 8-(2,2-dimethylpropyl)-2-({(1S)-1-[4-(thiophen-3-yl)phenyl]ethyl}amino)pyrido[2,3-d]pyrimidin-7(8H)-one], the concentration for half-maximal inhibition (IC50) in assay [1] was 218 nM; in assay [2] it was 141 nM; in assay [3] it was 5050 nM.
Consider `C[C@H](Nc1ncc2cc(F)c(=O)n(CC(C)(C)C)c2n1)c1ccc(CN2CCCC(F)(F)C2)cc1` [cpd 57, 2-{(S)-1-[4-(3,3-Difluoro-piperidin-1-ylmethyl)-phenyl]-ethylamino}-8-(2,2-dimethyl-propyl)-6-fluoro-8H-pyrido [2,3-d]pyrimidin-7-one], for which the results for the IC50 in assay [1] and in assay [2] were 543 nM and 208 nM, respectively.
On to `Cc1nc(N[C@@H](C)c2ccc(Cl)cc2)nc2c1ccc(=O)n2CC(C)C` [cpd 32, 2-{[(1S)-1-(4-chlorophenyl)ethyl]amino}-4-methyl-8-(2-methylpropyl)pyrido[2,3-d]pyrimidin-7(8H)-one], for which the figures for the half-maximal inhibitory concentration (IC50) in assay [1] and in assay [2] were 3770 nM and 1150 nM, respectively.
For `C[C@H](Nc1ncc2ccc(=O)n(CC(F)(CF)CF)c2n1)c1ccc(CN2CCC(F)(F)CC2)cc1` [cpd 107, 8-[2,3-difluoro-2-(fluoromethyl)propyl]-2-{[(1S)-1-{4-[(4,4-difluoropiperidin-1-yl)methyl]phenyl)ethyl]amino) pyrido[2,3-d]pyrimidin-7(8H)-one], in that order: 722 nM and 459 nM.
As to `C[C@H](Nc1ncc2ccc(=O)n(CC(C)(C)C)c2n1)c1ccc(CN2CCCC2)cc1` [cpd 111, 8-(2,2-dimethylpropyl)-2-({(1S)-1-[4-(pyrrolidin-1-ylmethyl)phenyl]ethyl}amino)pyrido[2,3-d]pyrimidin-7(8H)-one], the IC50 stood at 4040 nM in assay [1] and 1420 nM in assay [2].
Regarding `C[C@H](Nc1ncc2ccc(=O)n(CC(C)(C)C)c2n1)c1nc(-c2ccc(Cl)cc2)no1` [cpd 52, 2-({(1S)-1-[3-(4-chlorophenyl)-1,2,4-oxadiazol-5-yl]ethyl}amino)-8-(2,2-dimethylpropyl)pyrido[2,3-d]pyrimidin-7(8H)-one], the values for the half-inhibitory concentration (IC50) in assay [1] and in assay [2] were 1760 nM and 786 nM, respectively.
Turning to `CC(C)C(=O)N1CCC(Oc2ccc([C@H](C)Nc3ncc4ccc(=O)n([C@@H](C)C(C)C)c4n3)cc2)CC1` [cpd 160, 8-((S)-1,2-Dimethyl-propyl)-2-{(S)-1-[4-(1-isobutyryl-piperidin-4-yloxy)-phenyl]-ethylamino}-8H-pyrido[2,3-d]pyrimidin-7-one], the IC50 in assay [1] came to 68 nM; in assay [2], 31 nM.
The like results for `CC(C)[C@H](C)n1c(=O)ccc2cnc(N[C@@H](C)c3ccc(-c4ccnc(C(F)(F)F)c4)cn3)nc21` [cpd 196, 8-[(2S)-3-methylbutan-2-yl]-2-({(1S)-1-[2′-(trifluoromethyl)-3,4′-bipyridin-6-yl]ethyl}amino)pyrido[2,3-d]pyrimidin-7(8H)-one] were, in that order, 955 nM and 141 nM.
Take `CC(C)[C@H](C)n1c(=O)ccc2cnc(N[C@@H](C)c3ccc(CN4CCN(C)C(=O)C4)cc3)nc21` [cpd 188, 8-[(2S)-3-methylbutan-2-yl]-2-{[(1S)-1-{4-[(4-methyl-3-oxopiperazin-1-yl)methyl]phenyl}ethyl]amino}-pyrido [2,3-d]pyrimidin-7(8H)-one]: the 50% inhibitory concentration (IC50) was 330 nM in assay [1] and 120 nM in assay [2].
In the case of `COC(=O)c1ccc([C@H](C)Nc2ncc3ccc(=O)n(Cc4cc(F)cc(F)c4)c3n2)cc1` [cpd 7, methyl 4-[(1S)-1-{[8-(3,5-difluorobenzyl)-7-oxo-pyrido[2,3-d]pyrimidin-2-yl]amino}ethyl]benzoate], the IC50 in assay [1] stood at 2960 nM; in assay [2], 1410 nM.
